Assay results from publication PMC3617668, “In Vitro Antileishmanial, Trypanocidal, and Mammalian Cell Activities of Diverse N,N′ -Dihetaryl Substituted Diamines and Related Compounds” (Scientia Pharmaceutica, 2012).

Tests used:
[1] = test system: T. cruzi epimastigotes; assay: In vitro activity on T. cruzi epimastigotes, counting viable parasites; type: cell-based, Trypanosoma cruzi; details: for IC50: Trypanosoma cruzi, 72 h, 28 °C, read-out: T. cruzi epimastigotes IC50 ± SD; for T. cruzi epimastigotes SI: selectivity index CC50/IC50
Procedure: (§1) Epimastigotes of T. cruzi and promastigotes forms of L. […] The inhibition of parasite growth was microscopically determined by counting viable (live) parasites in a haemocytometer using yellow eosin as vital dye; live parasites (uncolored) and dead (orange) were counted. All of the experiments were performed with parasites in their logarithmic phase of growth. […] Negative controls were used without the drug (culture medium alone) in each experiment. […] The data were calculated by linear regression using the software ([…]; GO Business Solution, Guildford, UK). The selectivity index (SI) was calculated dividing CC50/IC50. Each experiment was repeated twice and the values represent the results of one representative experiment. […] The analysis to determine the statistical differences in biological activity was performed using the analysis of variance (ANOVA) and the Bonferroni post-test. We also performed Student's t test for comparison between the two variables, using GraphPad Prism software version 5.03.

[2] = Mammalian cell toxicity, MTT, Vero cells; type: cell-based; details: African green monkey, Vero cells, 72 h, MTT; read-out: Mammalian cells Vero CC50 ± SD
Procedure: (§2) Vero cells and THP-1 cells transformed into adherent macrophages with PMA in 96 microwell plates where they were treated with compounds (0-350 μM) during 72 h at 37 °C, 5% CO2-95% air mixture. The viability of the cells was evaluated by using the tetrazolium-dye (MTT) colorimetric method. After incubation of the cells with the MTT (5mg/mL) reagent for 4 hours, DMSO was added. The samples were read using an ELISA plate reader at a wavelength of 580 nm. The amount of color produced is directly proportional to the number of viable cells. The percentage of cytotoxicity was calculated by the equation: cytotoxicity (%) = (OD control group-OD treatment group)/OD control group × 100 [31]. […] The data were calculated by linear regression using the software ([…]; GO Business Solution, Guildford, UK). The selectivity index (SI) was calculated dividing CC50/IC50. Each experiment was repeated twice and the values represent the results of one representative experiment. […] The analysis to determine the statistical differences in biological activity was performed using the analysis of variance (ANOVA) and the Bonferroni post-test. We also performed Student's t test for comparison between the two variables, using GraphPad Prism software version 5.03.

[3] = test system: T. cruzi intracellular amastigotes; assay: Intracellular amastigotes of T. cruzi in Vero cells; type: cell-based, Trypanosoma cruzi
Procedure: (§3) For the amastigotes assays, adherent Vero cells or THP-1 macrophages (after transformation with 10 ng/mL PMA) were infected with tissue-derived trypomastigotes or stationary phase promastigotes, respectively, at a ratio of 10:1 and maintained in a 5% CO2-95% air mixture at 37 °C. After 24 h, infected cultures with >50% of infected cells were incubated with the compounds (from 3–300 μM) in a three-fold dilution series for 72 h. Drug activity was determined from the % of infected cells in treated and untreated cultures in fixed methanol and Giemsa stained preparations. Parasites’ assays were performed twice and each tested concentration was tested in triplicate.
(§4) Negative controls were used without the drug (culture medium alone) in each experiment.
(§5) The data were calculated by linear regression using the software (Msxlfit; GO Business Solution, Guildford, UK). The selectivity index (SI) was calculated dividing CC50/IC50. Each experiment was repeated twice and the values represent the results of one representative experiment. […] The analysis to determine the statistical differences in biological activity was performed using the analysis of variance (ANOVA) and the Bonferroni post-test. We also performed Student’s t test for comparison between the two variables, using GraphPad Prism software version 5.03. P values <0.05 were considered to be statistically significant.

[4] = test system: L. (L.) infantum promastigotes; assay: In vitro activity on L. (L.) infantum promastigotes, counting viable parasites; type: cell-based, Leishmania (Leishmania) infantum; details: for IC50: Leishmania infantum, 72 h, 28 °C, read-out: L. (L) infantum promastigotes IC50 ± SD; for L. (L) infantum promastigotes SI: selectivity index CC50/IC50
Procedure: as §1

[5] = Mammalian cell toxicity, MTT, THP-1 cells; type: cell-based; details: human, THP-1 cells transformed into adherent macrophages with PMA; 72 h, MTT; read-out: Mammalian cells THP-1 CC50 ± SD
Procedure: as §2

[6] = test system: L.(V.) panamensis intracellular amastigotes; assay: Intracellular amastigotes of L. (V.) panamensis in THP-1 macrophages; type: cell-based, Leishmania (Viannia) panamensis
Procedure: as §3, §4, §5

[7] = test system: L. (L.) amazonensis intracellular amastigotes; assay: Intracellular amastigotes of L. (L.) amazonensis in THP-1 macrophages; type: cell-based, Leishmania (Leishmania) amazonensis
Procedure: as §3, §4, §5

[8] = test system: L. (L.) infantum intracellular amastigotes; assay: Intracellular amastigotes of L. (L.) infantum infecting THP-1 macrophages; type: cell-based, Leishmania (Leishmania) infantum
Procedure: as §3, §4, §5

SMILES | IC50 [1] | T. cruzi epimastigotes SI [1] | CC50 at 72 h [2] | IC50 [4] | L. (L) infantum promastigotes SI [4] | CC50 at 72 h [5] | also measured
CC1CS(=O)(=O)CCN1/N=C/c1ccc([N+](=O)[O-])o1 (stereo not drawn) [Nif, Nifurtimox, reference compound] | 2.71 ± 0.05 µM | 28.23 | 76.5 ± 3.2 µM |  |  |  | IC90 ([3]; Trypanosoma cruzi, Vero cells, 72 h): 10.2 ± 1.6 µM; IC50 ([3]; Trypanosoma cruzi, Vero cells, 72 h, 98.1% cells infected before treatment): 2.34 ± 0.83 µM; T. cruzi intracellular amastigotes SI ([3]; selectivity index CC50/IC50): 55
O=C1CSC(c2ccccn2)N1CCN1C(=O)CSC1c1ccccn1 (stereo not drawn) [6f] | 161 ± 5.58 µM | >1.60 | > 250 µM | 176 ± 16 µM | >1.46 | > 250 µM | 
O=C1CSC(c2cccnc2)N1CCN1C(=O)CSC1c1cccnc1 (stereo not drawn) [6g] | > 250 µM | >1.0 | > 250 µM | > 250 µM | >1.0 | > 250 µM | 
c1ccc(CNCCCCNCc2ccccn2)nc1 [5i] | > 250 µM | >0.35 | 132 ± 12.3 µM | 28.8 ± 5.14 µM | >12.82 | > 300 µM | 
COc1ccc(CNCCCCNCc2ccc(OC)c(O)c2)cc1O [5e] | 1.22 ± 0.08 µM |  | > 250 µM | > 250 µM |  | 248 µM | 
c1ccc(CNCCCNCc2ccccc2)cc1 [5b] | 5.35 ± 0.27 µM | 64.2 | 343 ± 29.4 µM | 1.96 ± 0.07 µM | 86.29 | 169 ± 29.8 µM | 
O=C1CSC(c2ccncc2)N1CCN1C(=O)CSC1c1ccncc1 (stereo not drawn) [6h] | > 250 µM | >1.0 | > 250 µM | > 250 µM | >1.0 | > 250 µM | 
O=C1CSC(c2ccccc2)N1CCCCN1C(=O)CSC1c1ccccc1 (stereo not drawn) [6c] | > 250 µM | >1.01 | > 250 µM | > 250 µM | >1.0 | > 250 µM | 
C[C@@H]1[C@H](O)[C@@H](C)/C=C/C=C/C=C/C=C/C=C/C=C/C=C/[C@H](O[C@@H]2O[C@H](C)[C@@H](O)[C@H](N)[C@@H]2O)C[C@@H]2O[C@](O)(C[C@@H](O)C[C@@H](O)[C@H](O)CC[C@@H](O)C[C@@H](O)CC(=O)O[C@H]1C)C[C@H](O)[C@H]2C(=O)O [AmB, Amphotericin B, reference compound] |  |  |  | 0.014 ± 0.001 µM | 948.57 | 13.3 ± 1.72 µM | IC90 ([6]; THP-1 macrophages, 72 h): 0.2 ± 0.002 µM; IC50 ([6]; THP-1 macrophages, 72 h, 78.3% cells infected before treatment): 0.032 ± 0.002 µM; L.(V.) panamensis intracellular amastigotes SI ([6]; selectivity index CC50/IC50): 420; IC90 ([7]; Leishmania amazonensis, THP-1 macrophages, 72 h): 0.2 ± 0.002 µM; IC50 ([7]; Leishmania amazonensis, THP-1 macrophages, 72 h, 58.6% cells infected before treatment): 0.082 ± 0.002 µM; L. (L.) amazonensis intracellular amastigotes SI ([7]; selectivity index CC50/IC50): 616; IC90 ([8]; Leishmania infantum, THP-1 macrophages, 72 h): 0.138 ± 0.023 µM; IC50 ([8]; Leishmania infantum, THP-1 macrophages, 72 h, 48.58% cells infected before treatment): 0.045 ± 0.007 µM; L. (L.) infantum intracellular amastigotes SI ([8]; selectivity index CC50/IC50): 360
O=C1CSC(c2ccncc2)N1CCCCN1C(=O)CSC1c1ccncc1 (stereo not drawn) [6k] | > 250 µM | >1.0 | > 250 µM | > 250 µM | >1.0 | > 250 µM | 
O=C1CSC(c2cccnc2)N1CCCCN1C(=O)CSC1c1cccnc1 (stereo not drawn) [6j] | 235 ± 3.06 µM | 0.32 | 75.4 ± 1.8 µM | > 250 µM | >1.0 | > 250 µM | 
c1cncc(CNCCCCNCc2cccnc2)c1 [5j] | > 250 µM | >1 | > 300 µM | 44.2 ± 10.5 µM | >8.36 | > 300 µM | 
O=C(CCl)NCCCNC(=O)CCl [7b] | 1.01 ± 0.13 µM | 32.35 | 32.7 ± 6.56 µM | 76.4 ± 1.05 µM | 2.07 | 158 ± 4.53 µM | 
O=C1CSC(c2ccccc2)N1CCN1C(=O)CSC1c1ccccc1 (stereo not drawn) [6a] | 237 ± 12.1 µM | 0.72 | 171 ± 3.77 µM | 136 ± 6.96 µM | >1.91 | > 250 µM | 
c1cc(CNCCNCc2ccncc2)ccn1 [5h] | > 250 µM | >0.86 | 356 ± 37.1 µM | 181 ± 1.89 µM | >2.28 | > 413 µM | 
O=C1CSC(c2ccccn2)N1CCCCN1C(=O)CSC1c1ccccn1 (stereo not drawn) [6i] | > 250 µM | >1.0 | > 250 µM | > 250 µM | >1.0 | > 250 µM | 
COc1ccc(CNCCNCc2ccc(OC)c(O)c2)cc1O [5d] | 0.88 ± 0.06 µM |  | > 300 µM | 40.2 ± 5.21 µM | >7.48 | > 300 µM | 
